Three compounds from ChEMBL document CHEMBL4715844, “Structure-based virtual screening and biological evaluation of novel non-bisphosphonate farnesyl pyrophosphate synthase inhibitors” (Eur J Med Chem, 2020) can be followed below.

Assay [1] has as its target T1, Farnesyl pyrophosphate synthase (Rattus norvegicus) (UniProt P05369).
T1 sequence (whole entry): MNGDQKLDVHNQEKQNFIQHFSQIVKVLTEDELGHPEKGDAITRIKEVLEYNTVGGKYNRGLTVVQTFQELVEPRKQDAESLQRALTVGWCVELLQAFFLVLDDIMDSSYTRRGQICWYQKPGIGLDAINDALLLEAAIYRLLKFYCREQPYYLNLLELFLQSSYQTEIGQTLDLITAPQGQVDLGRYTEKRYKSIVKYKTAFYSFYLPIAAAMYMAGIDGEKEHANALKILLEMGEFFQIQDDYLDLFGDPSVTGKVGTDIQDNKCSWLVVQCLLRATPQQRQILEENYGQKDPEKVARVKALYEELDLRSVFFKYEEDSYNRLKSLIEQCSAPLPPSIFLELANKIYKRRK
Kind of assay: Inhibition of rat FPPS expressed in Escherichia coli BL21 (DE3) using GPP and IPP as substrate at 10 uM incubated for 10 mins by microplate reader.

Assay [2] addresses T2, Farnesyl pyrophosphate synthase (Rattus norvegicus, UniProt P05369).
T2 sequence (P05369 whole entry): T1 sequence (whole entry)
Kind of assay: Binding affinity to rat FPPS expressed in Escherichia coli BL21 (DE3) by isothermal titration calorimetry. (In general: ITC needs no label: the signal is the heat of the interaction.)

Usually inhibition stands for the change of the read-out against control, counted positive when it falls. For orientation: Kd means a measure of binding affinity in units of concentration. In turn, `O=c1oc2cc(O[C@@H]3O[C@H](CO)[C@@H](O)[C@H](O)[C@H]3O)ccc2c2ccccc12` displayed an inhibition in assay [1] of 11.5%. For the same compound, in assay [2], the Kd stood at 106 µM.

The compound `CNS(=O)(=O)c1cn(CC(=O)Nc2cc(C)cc(C)c2)cc1S(=O)(=O)NC` came in with an inhibition in assay [1] of 23.4%. The equilibrium dissociation constant (Kd) in assay [2] turned out to be 442 µM.

In assay [1], `CCC(C)c1ccc(O[C@@H]2O[C@H](CO)[C@@H](O)[C@H](O)[C@H]2NC(C)=O)cc1` (stereo partly specified) showed an inhibition of 25.3%. This compound also gave a Kd in assay [2] of 499 µM.
